Measurements reported in ChEMBL document CHEMBL3745628, “ent-Abietane-type diterpenoids from the roots of Euphorbia ebracteolata with their inhibitory activities on LPS-induced NO production in RAW 264.7 macrophages” (Bioorg Med Chem Lett, 2016).

What was measured:
[1] = system: RAW264.7; test: Cytotoxicity against mouse RAW264.7 cells assessed as reduction in cell viability at IC50 by MTT assay; type: cell-based
[2] = system: RAW264.7; test: Antiinflammatory activity in mouse RAW264.7 cells assessed as inhibition of LPS-induced NO production after 24 hrs by Griess method; type: functional, cell-based; conditions: RAW264.7, 24 h

Compound | Activity [1] | IC50 [2] [µM]
CC1=C2C(=C[C@H]3[C@]4(C)CCCC(C)(C)[C@H]4CC[C@]34O[C@H]24)OC1=O | Non-toxic | 25
CC1=C2[C@H](OC1=O)[C@H](O)[C@H]1[C@]3(C)CCCC(C)(C)[C@H]3CC[C@@]1(O)[C@H]2O | Non-toxic | 15.5
CC1=C2[C@@H](O)[C@@]3(O)CC[C@@H]4C(C)(C)CCC[C@@]4(C)[C@@H]3[C@@H](O)[C@H]2OC1=O | Non-toxic | 4.44
CC1=C2[C@H]3O[C@]34CC[C@@H]3C(C)(C)CCC[C@@]3(C)[C@@H]4[C@@H](O)[C@H]2OC1=O | Non-toxic | 6.98
CC1=C2[C@@H](O)C3=C([C@@H](O)[C@H]2OC1=O)[C@]1(C)CCCC(C)(C)[C@H]1CC3 | Non-toxic | 33.1
CC1=C2[C@@H](O)C3=CC[C@@H]4C(C)(C)CCC[C@@]4(C)[C@@H]3[C@@H](O)[C@H]2OC1=O | Non-toxic | 14.2
CC1=C2C=C3CC[C@@H]4C(C)(C)CCC[C@@]4(C)[C@@H]3[C@@H](O)[C@H]2OC1=O | Non-toxic | 5.94
CO[C@@]12OC(=O)C(C)=C1C=C1CC[C@@H]3C(C)(C)CCC[C@@]3(C)[C@@H]1[C@H]2O | Non-toxic | 1.97
CC1=C2C(=O)C3=C([C@@H](O)[C@H]2OC1=O)[C@]1(C)CCCC(C)(C)[C@H]1CC3 | Non-toxic | 0.69
